Assay results reported in ChEMBL document CHEMBL3596105, “Phospholipid derivatives of cladribine and fludarabine: synthesis and biological properties” (Bioorg Med Chem, 2015).

Columns and labels:
K562 [1] = test: Antiproliferative activity against human K562 cells assessed as cell growth inhibition after 48 hrs by MTT assay; format: functional, cell-based; conditions: K562, 48 h
MCF7 [2] = test: Antiproliferative activity against human MCF7 cells assessed as cell growth inhibition after 48 hrs by MTT assay; format: functional, cell-based; conditions: MCF7, 48 h
[3] = Antiproliferative activity against human MOLT3 cells assessed as cell growth inhibition after 48 hrs by MTT assay; format: functional, cell-based; conditions: MOLT-3, 48 h
[4] = Antiproliferative activity against human SKHEP1 cells assessed as cell growth inhibition after 48 hrs by MTT assay; format: functional, cell-based; conditions: SK-HEP1, 48 h
ZR-75-1 [5] = test: Antiproliferative activity against human ZR-75-1 cells assessed as cell growth inhibition after 48 hrs by MTT assay; format: functional, cell-based; conditions: ZR-75-1, 48 h
[6] = Antiproliferative activity against human RPMI8226 cells assessed as cell growth inhibition after 48 hrs by MTT assay; format: functional, cell-based; conditions: RPMI-8226, 48 h
[7] = Antiproliferative activity against human KG1 cells assessed as cell growth inhibition after 48 hrs by MTT assay; format: functional, cell-based; conditions: KG-1, 48 h
[8] = Antiproliferative activity against human SK-UT-1B cells assessed as cell growth inhibition after 48 hrs by MTT assay; format: functional, cell-based; conditions: Skut1B
Rattus norvegicus [9] = test: Prodrug conversion in Wistar rat assessed as slow F-ara-A release into bloodstream at 72 mg/kg, ig administered as single dose by HPLC analysis; format: ADME, organism-based; conditions: in vivo, po
[10] = Antiproliferative activity against human M-HeLa cells assessed as cell growth inhibition after 48 hrs by MTT assay; format: functional, cell-based
HL-60 [11] = test: Antiproliferative activity against human HL60 cells assessed as cell growth inhibition after 72 hrs by MTT assay; format: functional, cell-based; conditions: HL-60, 72 h
Mus musculus [12] = test: Cmin in ICR mouse assessed as F-ara-A concentration at 120.4 mg/kg, ig administered as single dose after 24 hrs by HPLC analysis; format: ADME, organism-based; conditions: in vivo, po
MCF7 [13] = test: Antiproliferative activity against human MCF7 cells assessed as cell growth inhibition after 72 hrs by MTT assay; format: functional, cell-based; conditions: MCF7, 72 h
Mus musculus [14] = test: Apparent half-life in ICR mouse assessed as F-ara-A content at 120.4 mg/kg, ig administered as single dose by HPLC analysis; format: ADME, organism-based; conditions: in vivo, po
HL-60 [15] = test: Antiproliferative activity against human HL60 cells assessed as cell growth inhibition after 48 hrs by MTT assay; format: functional, cell-based; conditions: HL-60, 48 h
K562 [16] = test: Antiproliferative activity against human K562 cells assessed as cell growth inhibition after 72 hrs by MTT assay; format: functional, cell-based; conditions: K562, 72 h
Raji = test: Antiproliferative activity against human Raji cells assessed as cell growth inhibition after 48 hrs by MTT assay; format: functional, cell-based
Rattus norvegicus [17] = test: Prodrug conversion in Wistar rat assessed as smooth increase in F-ara-A concentration in serum at 72 mg/kg, ig administered as single dose by HPLC analysis; format: ADME, organism-based; conditions: in vivo, po
Mus musculus [18] = test: Tmax in ICR mouse assessed as F-ara-A concentration at 120.4 mg/kg, ig administered as single dose by HPLC analysis; format: ADME, organism-based; conditions: in vivo, po
Rattus norvegicus [19] = test: Prodrug conversion in Wistar rat assessed as prolonged serum circulation of liberated F-ara-A at 72 mg/kg, ig administered as single dose by HPLC analysis; format: ADME, organism-based; conditions: in vivo, po
[20] = Antiproliferative activity against human KG1 cells assessed as cell growth inhibition after 72 hrs by MTT assay; format: functional, cell-based; conditions: KG-1, 72 h
Mus musculus [21] = test: Cmax in ICR mouse assessed as F-ara-A concentration at 120.4 mg/kg, ig administered as single dose by HPLC analysis; format: ADME, organism-based; parameters: dose 120.4 mg/kg, route intragastric; conditions: in vivo, po
Rattus norvegicus [22] = test: Prodrug conversion in Wistar rat assessed as prolonged serum circulation of liberated F-ara-A at 77 mg/kg, ig administered as single dose by HPLC analysis; format: ADME, organism-based; conditions: in vivo, po
Rattus norvegicus [23] = test: Prodrug conversion in Wistar rat assessed as smooth increase in F-ara-A concentration in serum at 77 mg/kg, ig administered as single dose by HPLC analysis; format: ADME, organism-based; conditions: in vivo, po
Rattus norvegicus [24] = test: Prodrug conversion in Wistar rat assessed as slow F-ara-A release into bloodstream at 77 mg/kg, ig administered as single dose by HPLC analysis; format: ADME, organism-based; conditions: in vivo, po
ZR-75-1 [25] = test: Antiproliferative activity against human ZR-75-1 cells assessed as cell growth inhibition after 72 hrs by MTT assay; format: functional, cell-based; conditions: ZR-75-1, 72 h
[26] = Antiproliferative activity against human M-HeLa cells assessed as cell growth inhibition after 72 hrs by MTT assay; format: functional, cell-based
[27] = Antiproliferative activity against human SK-UT-1B cells assessed as cell growth inhibition after 72 hrs by MTT assay; format: functional, cell-based; conditions: Skut1B
Mus musculus [28] = test: Cmin in ICR mouse assessed as F-ara-A concentration at 50 mg/kg, ig administered as single dose after 24 hrs by HPLC analysis; format: ADME, organism-based; conditions: in vivo, po
Mus musculus [29] = test: Tmax in ICR mouse assessed as F-ara-A concentration at 50 mg/kg, ig administered as single dose by HPLC analysis; format: ADME, organism-based; conditions: in vivo, po
Mus musculus [30] = test: Apparent half-life in ICR mouse assessed as F-ara-A content at 50 mg/kg, ig administered as single dose by HPLC analysis; format: ADME, organism-based; conditions: in vivo, po
Mus musculus [31] = test: Cmax in ICR mouse assessed as F-ara-A concentration at 50 mg/kg, ig administered as single dose by HPLC analysis; format: ADME, organism-based; parameters: dose 50 mg/kg, route intragastric; conditions: in vivo, po

SMILES	IC50 (K562 [1])	IC50 (MCF7 [2])	IC50 [3]	IC50 (ZR-75-1 [5])	IC50 [7]	IC50 [8]	IC50 [10]	IC50 (HL-60 [15])	IC50 (Raji)	IC50 [20]	also measured
CCCCCCCCCCCCCCCC(=O)OCC(COC(=O)CCCCCCCCCCCCCCC)OP(=O)(O)OC[C@H]1O[C@@H](n2cnc3c(N)nc(Cl)nc32)C[C@@H]1O	> 100 µM	> 100 µM	> 100 µM								
CCCCCCCCCCCCCC(=O)OCC(COP(=O)(O)OC[C@H]1O[C@@H](n2cnc3c(N)nc(Cl)nc32)C[C@@H]1O)OC(=O)CCCCCCCCCCCCC (some centres not stated)	50 µM	> 100 µM	8 µM	> 100 µM	17 µM	> 100 µM					IC50 [4]: > 100 µM; IC50 [6]: > 100 µM
CCCCCCCCCCCCCCCC(=O)OCC(COP(=O)(O)OC[C@H]1O[C@@H](n2cnc3c(N)nc(Cl)nc32)C[C@@H]1O)OC(=O)CCCCCCCCCCCCCCC (some centres not stated)	> 100 µM	> 100 µM	> 100 µM								
CCCCCCCCCCCCCC(=O)OCC(COC(=O)CCCCCCCCCCCCC)OP(=O)(O)OC[C@H]1O[C@@H](n2cnc3c(N)nc(Cl)nc32)C[C@@H]1O	> 100 µM	> 100 µM	> 100 µM								
CCCCCCCCCCCCCC(=O)OCC(COP(=O)([O-])OC[C@H]1O[C@@H](n2cnc3c(N)nc(F)nc32)[C@@H](O)[C@@H]1O)OC(=O)CCCCCCCCCCCCC.[Na+] (some centres not stated)	45 µM	45 µM	> 100 µM	> 100 µM	55 µM	> 100 µM	> 100 µM	30 µM	> 100 µM	9 µM	Drug metabolism (Rattus norvegicus [9]): metabolite_detected; IC50 (HL-60 [11]): 16 µM; Cmin (Mus musculus [12]): 199 ng/mL; IC50 (MCF7 [13]): 18 µM; t1/2(app) (Mus musculus [14]): 14.2 h; IC50 (K562 [16]): > 100 µM; Drug metabolism (Rattus norvegicus [17]): metabolite_detected; Tmax (Mus musculus [18]): 2.8 h; Drug metabolism (Rattus norvegicus [19]): metabolite_detected; Cmax (Mus musculus [21]): 1613 ng/mL
CCCCCCCCCCCCCCCC(=O)OCC(COP(=O)([O-])OC[C@H]1O[C@@H](n2cnc3c(N)nc(F)nc32)[C@@H](O)[C@@H]1O)OC(=O)CCCCCCCCCCCCCCC.[Na+] (some centres not stated)	> 100 µM	> 100 µM	> 100 µM	> 100 µM	> 100 µM	> 100 µM	> 100 µM	> 100 µM	> 100 µM	75 µM	Drug metabolism (Rattus norvegicus [22]): metabolite_detected; Drug metabolism (Rattus norvegicus [23]): metabolite_detected; Drug metabolism (Rattus norvegicus [24]): metabolite_detected
CCCCCCCCCCCCCC(=O)OCC(COC(=O)CCCCCCCCCCCCC)OP(=O)([O-])OC[C@H]1O[C@@H](n2cnc3c(N)nc(F)nc32)[C@@H](O)[C@@H]1O.[Na+]	75 µM	> 100 µM	> 100 µM	> 100 µM	> 100 µM	> 100 µM	> 100 µM	80 µM	> 100 µM	35 µM	Drug metabolism (Rattus norvegicus [9]): metabolite_detected; IC50 (HL-60 [11]): 65 µM; IC50 (MCF7 [13]): 45 µM; IC50 (ZR-75-1 [25]): 75 µM; IC50 [26]: 45 µM; IC50 (K562 [16]): > 100 µM; IC50 [27]: 55 µM; Drug metabolism (Rattus norvegicus [17]): metabolite_detected; Drug metabolism (Rattus norvegicus [19]): metabolite_detected
CCCCCCCCCCCCCCCC(=O)OCC(COC(=O)CCCCCCCCCCCCCCC)OP(=O)([O-])OC[C@H]1O[C@@H](n2cnc3c(N)nc(F)nc32)[C@@H](O)[C@@H]1O.[Na+]	> 100 µM	> 100 µM	> 100 µM	> 100 µM	> 100 µM	> 100 µM	> 100 µM	> 100 µM	> 100 µM		Drug metabolism (Rattus norvegicus [22]): metabolite_detected; Drug metabolism (Rattus norvegicus [23]): metabolite_detected; Drug metabolism (Rattus norvegicus [24]): metabolite_detected
Nc1nc(Cl)nc2c1ncn2[C@H]1C[C@H](O)[C@@H](CO)O1 [CLADRIBINE]	10 µM	45 µM	2.3 µM	> 100 µM	0.2 µM	1 µM					IC50 [4]: 4 µM; IC50 [6]: 6 µM
Nc1nc(F)nc2c1ncn2[C@@H]1O[C@H](COP(=O)(O)O)[C@@H](O)[C@@H]1O [FLUDARABINE PHOSPHATE]	0.4 µM	0.13 µM	0.95 µM	0.6 µM	0.15 µM	6 µM	2 µM	0.09 µM	0.4 µM		Cmin (Mus musculus [28]): 13 ng/mL; Tmax (Mus musculus [29]): 0.9 h; t1/2(app) (Mus musculus [30]): 1.5 h; Cmax (Mus musculus [31]): 8989 ng/mL
